Measured values published in the Bradley open melting point set (2014).

SMILES	melting point [°C]
Nc1ccc2ncsc2c1 [6-aminobenzothiazole]	88
Nc1ccc2ncccc2c1 [6-aminoquinoline]	117
Cc1n[nH]c(=S)[nH]c1=O [6-aza-2-thiothymine]	220
Cc1n[nH]c(=O)[nH]c1=O [6-azathymine]	213
CCCC(=O)c1cc2cc(Br)ccc2oc1=O [6-bromo-3-butyrylcoumarin]	164
Brc1ccc2ncsc2c1 [6-bromobenzothiazole]	53
Cn1c(Cl)cc(=O)n(C)c1=O [6-chloro-1,3-dimethyluracil]	110
O=C(O)C1=Cc2cc(Cl)ccc2OC1 [6-chloro-2h-chromene-3-carboxylic acid]	243
Oc1cc(C(F)(F)F)nc2ccc(Cl)cc12 [6-chloro-4-hydroxy-2-(trifluoromethyl)quinoline]	279
CCOc1ccc(B(O)O)cn1 [6-ethoxypyridine-3-boronic acid]	103
O=C1CCc2ccc(F)cc21 [6-fluoro-1-indanone]	58
O=C(O)c1c(O)cccc1F [6-fluorosalicylic acid]	160
C=CCCCCC(=O)O [6-heptenoic acid]	-6
COc1ccc2c(c1)=NC(c1ccccc1)C=2c1ccccc1 (stereo not given) [6-methoxy-2,3-diphenyl-1H-indole]	212
COc1ccc(B(O)O)cn1 [6-methoxypyridine-3-boronic acid]	133
COc1ccc2ncccc2c1 [6-methoxyquinoline]	19
Cc1ccc2ncccc2c1[N+](=O)[O-] [6-methyl-5-nitroquinoline]	117
O=Cc1cc2c(cc1[N+](=O)[O-])OCO2 [6-nitropiperonal]	95
COc1cc(C=O)c([N+](=O)[O-])cc1OC [6-nitroveratraldehyde]	133

SMILES	melting point [°C]
Cc1cc(=O)oc2cc(O)ccc12 [7-Hydroxy-4-methyl-2H-chromen-2-one]	191
CC(C)C1=C(O)C(=O)C2=C(C(=O)CC3C(C)(C)CCCC23C)C1=O (stereo not given) [7-Oxoroyleanone]	198
Brc1cccc2cc[nH]c12 [7-bromoindole]	43
O=C1Nc2c(Br)cccc2C1=O [7-bromoisatin]	197
CCN(CC)c1ccc2c(C)cc(=O)oc2c1 [7-diethylamino-4-methylcoumarin]	74
O=c1cc(C(F)(F)F)c2ccc(O)cc2o1 [7-hydroxy-4-(trifluoromethyl)coumarin]	179
O=C1CC(c2ccccc2)Oc2cc(O)ccc21 (stereo not given) [7-hydroxyflavanone]	188
CC(C)C1=C(O)C(=O)C2=C(CCC3C(C)(C)CCCC23C)C1=O (stereo not drawn) [7alpha-12-Hydroxy-8,12-abietadiene-11,14-dione]	181
O=C1c2ccccc2-c2cccc3cccc1c23 [7h-benz[de]anthracen-7-one]	173
Nc1cccc2ccc(O)cc12 [8-amino-2-naphthol]	208
O=C(O)CCCCCCCBr [8-bromooctanoic acid]	39
C/C(=N\Nc1cccc2cccnc12)c1cccs1 [8-{(2E)-2-[1-(2-Thienyl)ethylidene]hydrazino}quinoline]	160
O=C1C(=O)c2ccccc2-c2ccccc21 [9,10-phenanthrenequinone]	210
ClCc1c2ccccc2cc2ccccc12 [9-(chloromethyl)anthracene]	140
Clc1c2ccccc2cc2ccccc12 [9-Chloroanthracene]	104
Cc1c2ccccc2cc2ccccc12 [9-Methylanthracene]	78
C[C@]12CCC(=O)C=C1CC[C@@H]1[C@@H]2CC[C@]2(C)C(=O)CC[C@@]12O [14-hydroxyandrost-4-ene-3,17-dione]	258
CCC1(O)CCC2C3CCC4CC(OC(C)=O)CCC4(C)C3CCC21C (stereo not given) [17-hydroxypregnan-3-yl acetate]	165
CN[C@@H](C)[C@H](O)c1ccccc1 [(1R,2S)-2-(Methylamino)-1-phenylpropan-1-ol]	36

The remaining lines, values ahead:

melting point [°C]	SMILES
69	CCn1c2ccccc2c2ccccc21 [9-Ethyl-9H-carbazole]
91	Cn1c2ccccc2c2ccccc21 [9-Methyl-9H-carbazole]
163	OCc1c2ccccc2cc2ccccc12 [9-anthracenemethanol]
104	Clc1c2ccccc2cc2ccccc12 [9-chloroanthracene]
69	CCn1c2ccccc2c2ccccc21 [9-ethylcarbazole]
135	CC1(C)CCC2=C1CCC1C2CCC2CC(=O)CCC21C (stereo not given) [10,17,17-trimethylgon-13-en-3-one]
104	Oc1cccc2ccc3cccnc3c12 [10-hydroxybenzo[h]quinoline]
119	FC1(F)C2=CC=CC=C1C=CC=C2 [11,11-Difluoro-1,6-methano[10]annulene]
91	CCCCc1c2c(cc3c1-c1ccccc1OC3)CCCC2=O [12-Butyl-9,10-dihydro-6H-naphtho[2,3-c]chromen-11(8H)-one]
80.5	CCCCCCC(O)CCCCCCCCCCC(=O)O (stereo not given) [12-Hydroxyoctadecanoic acid]
237	C=C1C(=O)C23C(OC(C)=O)CC4C(C)(C)CCC(OC(C)=O)C4(C)C2C(OC(C)=O)CC1C3OC(C)=O (stereo not given) [15-oxokaur-16-ene-1,7,11,14-tetrayl tetraacetate]
110	CC(=O)OC1CCC2(C)C3CCC4=C(CCC4(C)C#CCl)C3CCC2(C)C1 (stereo not given) [17-(chloroethynyl)-5,10,17-trimethylgon-13-en-3-yl acetate]
166	CC(=O)OC1CCC2(C)C(CCC3C2CCC2(C)C3CCC2(O)C#Cc2ccccc2)C1 (stereo not given) [17-hydroxy-21-phenylpregn-20-yn-3-yl acetate]
177	CC12CCC(=O)CC1CCC1C2CCC2(C)C1CCC2(O)CCc1ccccc1 (stereo not given) [17-hydroxy-21-phenylpregnan-3-one]
141	C#CC1(O)CCC2C3CCc4cc(O)ccc4C3CCC21C (stereo not given) [17a-Ethynylestradiol]
100	O=C(/C=C/OC(=O)c1ccccc1)CCc1ccccc1 [(1E)-3-oxo-5-phenylpent-1-en-1-yl benzoate]
41	CC1(C)[C@H]2CC[C@](C)(C2)[C@H]1O [(1R)-endo-fenchyl alcohol]
150	O=C(O)[C@@H]1[C@H](C(=O)O)[C@H]2C=C[C@@H]1C2 [(1R,2R,3S,4S)-Bicyclo[2.2.1]hept-5-ene-2,3-dicarboxylic acid]
32.5	O[C@@H]1CCC[C@@H]1O [(1R,2S)-Cyclopentane-1,2-diol]
122	OC1[C@H]2CC[C@@H]1[C@H]1C=C[C@@H]2O1 (stereo partly drawn) [(1R,2S,5R,6S)-9-oxatricyclo[4.2.1.1~2,5~]dec-7-en-10-ol]
179	CC1(C)C2CC[C@]1(C)C(=O)C2 [(1S)-1,7,7-Trimethylbicyclo[2.2.1]heptan-2-one]
183	CC1(C)[C@@H]2CC[C@]13CS(=O)(=O)N[C@@H]3C2 [(1S,2R)-10,2-camphorsultam]
